Test results published in publication PMC12040169 (PLOS Biology, 2025).

Assay: in vitro
Settings: human, hela cells, % viability

| Structure (SMILES) | viability at 28.5 h, 10 µM [%] | viability at 28.5 h, 10 µM (bulk resorufin, single well) [%] |
| --- | --- | --- |
| O=C(C1=C(O)C(=O)N(Cc2cccnc2)C1c1cccnc1)c1ccccc1 (centres unmarked) [CBK264522] | 99.5 | – |
| O=C(Cn1cc(-c2ccc(CN3CCCCC3)cc2)nn1)NCc1ccc(C2CCC2)cc1 [CBK167547] | 86.6 | – |
| O=C(NCCC1SC(NC2CCCCCC2)=NC1=O)Nc1ccc(F)cc1F (centres unmarked) [CBK067469] | 99.7 | – |
| Cc1ccn(-c2ccc(N3CCOC4(CCCC4)C3)nn2)n1 [CBK305262] | 87.9 | – |
| O=C(NCC1CCCO1)C(=O)Nc1ccccc1F (centres unmarked) [CBK263557] | 90.5 | – |
| CCOC(=O)c1sc(NS(=O)(=O)c2ccc(-c3ccccc3)cc2)nc1C [CBK003784] | 106 | – |
| CCOC(=O)c1nc(N)oc1C [CBK056636] | 85.3 | – |
| Cc1cc(C)c2c(c1)cc(C)c1nn(CC(=O)N(C)C)c(=O)n12 [CBK283927] | 96.9 | – |
| CCCN(CCc1ccc(C(F)(F)F)cc1)C1Cc2cc(OC)c(OC)cc2C1 [CBK017829C] | 103 | – |
| O=C(Nc1ccccc1)Nc1ccc(=O)n2c1[C@@H]1C[C@@H](CN(C(=O)c3ccc(F)cc3)C1)C2 [CBK288714] | 104 | – |
| Cc1cc(NC(=O)CCn2c(C(F)F)cc3cccnc32)nn1C [CBK285071] | 90.2 | – |
| Cc1nn(Cc2c(F)cccc2Cl)c(C)c1NC(=O)CCCC(=O)O [CBK286838] | 108 | – |
| COc1ccc(CC(=O)Nc2ccc(-c3nnc(-c4ccccc4)o3)cc2)cc1OC [CBK267414] | 94.9 | – |
| COCCCNC(=S)Nc1ccc(N2CCOCC2)c2nonc12 [CBK266947] | 88.8 | – |
| CN1CCCN(c2cncc(-c3cccc(OC(F)(F)F)c3)n2)CC1 [CBK065949] | 102 | – |
| Cc1nc2c(c(CCC(=O)O)n1)CCCC2 [CBK023157] | 98.4 | – |
| c1ccc2c(c1)nc1n2CCN1CCN1CCCCC1 [CBK278283C] | 98.5 | – |
| O=C1NC(=O)C(CCC(=O)N2CCN(c3nc4ccccc4s3)CC2)C(=O)N1 [CBK285807] | – | 86.6 |
| O=C(c1cccc2ncccc12)N1CCN(CC2CCOC2)CC1 (centres unmarked) [CBK305140] | 94.3 | – |
| CC(C)NC(=O)[C@H]1O[C@H](CCN2CCN(c3ccccc3)CC2)CC[C@@H]1O [CBK288719] | 123 | – |
| O=C(O)c1cccc(NC(=O)c2cccc(S(=O)(=O)Nc3ccc(Cl)cc3)c2)c1 [CBK261261] | 92.6 | – |
| CCc1nccn1CC(=O)NC(Cc1ccsc1)c1nccs1 (centres unmarked) [CBK285139] | 111 | – |
| c1ccc2c(Sc3cnccn3)cccc2c1 [CBK085841] | 90.7 | – |

| Structure (SMILES) | viability at 28.5 h, 10 µM [%] | viability at 28.5 h, 10 µM (bulk resorufin, single well) [%] |
| --- | --- | --- |
| COc1ccc(Cl)cc1NC(=O)C(=O)NCC1CCCO1 (centres unmarked) [CBK263823] | 91.8 | – |
| COc1cc(/C=N/n2cnnc2)ccc1OCCOc1ccc(C(C)(C)C)cc1 [CBK263762] | 88.8 | – |
| O=C(Cn1cc(C(=O)c2ccco2)c2ccccc21)NCCc1c[nH]c2ccccc12 [CBK267509] | – | 97.9 |
| Cc1cc(Br)c(O)c(C(=O)N(C)CC(=O)Nc2cc(C)on2)c1 [CBK306002] | 94.8 | – |
| Fc1ccc(C2C=C(c3ccc(F)cc3F)Nc3ncnn32)cc1 (centres unmarked) [CBK288095] | 99.7 | – |
| OC1(c2cccnc2F)CCN(Cc2ccccc2F)CC1 [CBK284372] | 91 | – |
| O=C(COc1ccc(S(=O)(=O)N2CCCCC2)cc1)N1CCN(Cc2ccccc2)CC1 [CBK269144] | 87.1 | – |
| Cc1ccc(C)c(NC(=O)N2CCC3(CCc4nccc(C)c4C3=O)CC2)c1 [CBK059554] | 91.6 | – |
| NC(=O)c1c(NC(=O)CSc2nnc(-c3ccccc3)n2CC2CCCO2)sc2c1CCC2 (centres unmarked) [CBK084789] | 110 | – |
| CCCC(=O)NCC1Cc2cc(F)cc(-c3ccc(C(C)=O)s3)c2O1 (centres unmarked) [CBK306945] | 90.3 | – |
| O=C(O)CCCCCNc1ncnc2sc3c(c12)CCCC3 [CBK077446] | 102 | – |
| O=C(CSc1nnnn1C1CC1)Nc1ccc(CN2CCOCC2)cc1 [CBK305857] | 99.2 | – |
| CCn1cc(CN2CCCCCC2c2cc(C)no2)c(C)n1 (centres unmarked) [CBK282159] | 95.6 | – |
| C=CCSc1nnc(CSc2nc3sc4c(c3c(=O)[nH]2)CCCC4)n1-c1ccccc1 [CBK263341] | 94.4 | – |
| CN(C)c1cccc(C(=O)Nc2nc3ccc(S(N)(=O)=O)cc3s2)c1 [CBK287602] | 95.8 | – |
| O=C(Nc1nccs1)c1cccc(Cl)c1Cl [CBK058011] | 112 | – |
| COc1ccc(C)cc1S(=O)(=O)N(CCO)c1cc(N2CCNCC2)c2occc2c1 [CBK067894C] | 86 | – |
| COc1ccc(/C=C(\C)C(=O)Nc2cccnc2N2CCNCC2)cc1OC [CBK034124T] | 88.3 | – |
| Cc1cccn2cc(CC(=O)OCC(=O)NC(C)(C)C)nc12 [CBK304966] | 110 | – |
| Cc1cccc(C)c1OCc1nnc(SCc2ccc([N+](=O)[O-])cc2)n1C [CBK269737] | 105 | – |
| CN1CCN(CC2(CNC(=O)c3ccc(C(=O)O)cc3)CC2)CC1 [CBK307517] | 102 | – |
| CC(=O)N[C@@H](CC[S+](C)[O-])C(=O)N1CCC2(C/C=C/C[C@@H]3COCC[C@@H]3NC(=O)[C@@H](CC(C)C)NC2=O)CC1 (some centres unmarked) [CBK292192] | 105 | – |
| COc1ccccc1-c1nccnc1OCCC(C)C [CBK106818] | 109 | – |

| Structure (SMILES) | viability at 28.5 h, 10 µM [%] | viability at 28.5 h, 10 µM (bulk resorufin, single well) [%] |
| --- | --- | --- |
| COc1ccc(CNC(=O)NC(=O)C2CCN(S(C)(=O)=O)CC2)c(OC)c1 [CBK034861] | 89.4 | – |
| O=C1CC2(CCN(C(=O)c3ccccc3F)CC2)Oc2c(Cl)cc(Cl)cc21 [CBK156453] | 91.8 | – |
| CS(=O)(=O)N(CC(=O)NC1CCCCC1)c1cccc2ccccc12 [CBK263770] | 83.9 | – |
| N#CCCN(C(=O)Nc1ccc(Cl)cc1)C1CCCCC1 [CBK156365] | 89.1 | – |
| O=C(Nc1ccccc1)N(Cc1nc(-c2ccccc2)no1)C1CCCCC1 [CBK269830] | 93.2 | – |
| COc1cc(OC)nc(C(NC(=O)C2CCN(Cc3ccccc3F)CC2)c2ccc(Cl)cc2)n1 (centres unmarked) [CBK148152] | 98 | – |
| CC(Cn1cncn1)C(=O)NC(C)C1CC2CCC1C2 (centres unmarked) [CBK282089] | 109 | – |
| OCc1cc(N2CCOC3(CCCOC3)C2)ncc1F (centres unmarked) [CBK304774] | 94.7 | – |
| CCCc1nn(CC(=O)NC(C)(C)C)c(=O)c2cc3ccsc3n12 [CBK284148] | 83.7 | – |
| Cc1cc(N2CCNCC2)c2ccccc2n1 [CBK066895] | 86.1 | – |
| CSCCN1CCCC2(CCN(C(=O)c3ccoc3)C2)C1 (centres unmarked) [CBK132835] | 88.7 | – |
| CN(C)CCN(C)c1cncc(-c2cccc3ccccc23)n1 [CBK065709] | 106 | – |
| CC(Oc1ccc(Cl)cc1Cl)C(=O)NCCc1cccc(Cl)c1 (centres unmarked) [CBK265489] | 84.2 | – |
| Cc1nc2ccc(NC(=O)CCn3nc(C)c(Cl)c3C)cc2s1 [CBK281634] | 106 | – |
| CN(C)CCN(C)C(=O)c1ccc(-c2cccc(Cl)c2Cl)nc1N(C)C [CBK106082] | 94.1 | – |
| Oc1ccc(-n2cc(-c3ccsc3)nn2)cc1 [CBK113093] | 84.6 | – |
| O=C(c1cc[nH]c1)N1CCCC2(CCN(C(=O)c3ccoc3)C2)C1 (centres unmarked) [CBK131629] | 105 | – |
| O=C(NC1CCCCC1)c1cc(S(=O)(=O)N2CCOCC2)ccc1Cl [CBK261662] | 96 | – |
| COc1ccc(C)cc1S(=O)(=O)Nc1cc(N2CCN(CC3CC3)CC2)c2occc2c1 [CBK073624C] | 94.2 | – |
| CC(=O)Nc1ccc(C(=O)Nc2ccc(S(=O)(=O)N3CCOCC3)cc2)cc1 [CBK264763] | 95.1 | – |
| O=C(Cn1ncc2ccccc2c1=O)NNC(=S)Nc1ccc2c(c1)OCO2 [CBK268751] | 100 | – |
| CCN(C(=O)Nc1ccc(-c2ccco2)cc1)C1CCOCC1 [CBK306916] | 95.8 | – |
| CNCC(=O)N1CCC2(CCCC[C@H]3CN(C(C)=O)CC[C@H]3NC(=O)CNC2=O)CC1 [CBK292181] | 79.3 | – |

| Structure (SMILES) | viability at 28.5 h, 10 µM [%] | viability at 28.5 h, 10 µM (bulk resorufin, single well) [%] |
| --- | --- | --- |
| Cn1ccc(C(=O)NC(Cc2ccsc2)c2nccs2)cc1=O (centres unmarked) [CBK285143] | 87 | – |
| CN1CCN(S(=O)(=O)c2ccc3c4c(cccc24)C(=O)N3)CC1 [CBK266647] | 111 | – |
| Nc1ncnc2c1ncn2CCN1CCOCC1 [CBK269049] | 104 | – |
| O=C(c1ccc2ccccc2c1)N1CCC2(CC1)CN(Cc1ccccc1)CCO2 [CBK161118A] | 94.1 | – |
| Cc1ccc(S(=O)(=O)Nc2cccc(C(=O)O)c2)cc1 [CBK038891] | 84.1 | – |
| CCOC(=O)c1nc(-c2ccccc2)sc1C(C)=O [CBK067739] | 98.8 | – |
| N#CCCCN1CCC(Oc2cncc(OCCN3CCOCC3)n2)C1 (centres unmarked) [CBK084495] | 103 | – |
| S=C(Nc1ccccc1)N1CCCCC1CN1CCCCC1 (centres unmarked) [CBK006196] | 112 | – |
| COc1ccc(OC)c(NC(=O)CSc2nnc(-c3ccc(F)cc3)n2C)c1 [CBK266073] | 92 | – |
| COCCCn1c(N)c(C(=O)NCC(C)C)c2nc3ccccc3nc21 [CBK126495] | 84.9 | – |
| S=C1NCC(COc2ccc(Cl)cc2)O1 (centres unmarked) [CBK015647] | 98.9 | – |
| Cc1cc(C)cc(NC(=O)C(Cc2ccccc2)C(=O)Nc2cc(C)cc(C)c2)c1 [CBK266165] | 106 | – |
| Cc1cc(C(=O)N2CCCC2c2ccc[nH]2)c2c(C)noc2n1 (centres unmarked) [CBK305245] | 91.5 | – |
| COc1cc(NC(=O)N2CCC(C(=O)O)CC2)cc(OC)c1OC [CBK156076] | 97.8 | – |
| CCn1nc(C(=O)Nc2ccccc2-c2ccc(OC)cc2)c2ccccc2c1=O [CBK285864] | 94.1 | – |
| O=C1Nc2ccccc2C(O)(C(=O)NCc2ccccc2)N1c1ccccc1 (centres unmarked) [CBK288555] | 91.1 | – |
| Cc1nc(SCC(=O)N2CCC(C)CC2)c2c3c(sc2n1)CCC3 [CBK265944] | 86.1 | – |
| Cc1c(S(=O)(=O)Nc2ccnn2C)cnn1-c1ccccc1 [CBK062079] | 97.5 | – |
| CN(C)CCCNC(=S)Nc1ccc(Cl)cc1Cl [CBK264183] | 92.5 | – |
| NC(=O)CN(CC(N)=O)S(=O)(=O)c1ccccc1 [CBK262490] | 85.4 | – |
